The source of these data is ChEMBL document CHEMBL4715734, “Discovery of the Potent and Selective M1 PAM-Agonist N-[(3R,4S)-3-Hydroxytetrahydro-2H-pyran-4-yl]-5-methyl-4-[4-(1,3-thiazol-4-yl)benzyl]pyridine-2-carboxamide (PF-06767832): Evaluation of Efficacy and Cholinergic Side Effects” (J Med Chem, 2016).

Series [1] in a line: Permeability of compound in MDCKII-LE cells. The class given is ADME, cell-based, Canis lupus familiaris. The note with it: dog, MDCK; read-out: permeability.
For series [2], the target named is T1, Muscarinic acetylcholine receptor M1 (Homo sapiens, UniProt P11229).
T1 sequence (P11229 whole entry): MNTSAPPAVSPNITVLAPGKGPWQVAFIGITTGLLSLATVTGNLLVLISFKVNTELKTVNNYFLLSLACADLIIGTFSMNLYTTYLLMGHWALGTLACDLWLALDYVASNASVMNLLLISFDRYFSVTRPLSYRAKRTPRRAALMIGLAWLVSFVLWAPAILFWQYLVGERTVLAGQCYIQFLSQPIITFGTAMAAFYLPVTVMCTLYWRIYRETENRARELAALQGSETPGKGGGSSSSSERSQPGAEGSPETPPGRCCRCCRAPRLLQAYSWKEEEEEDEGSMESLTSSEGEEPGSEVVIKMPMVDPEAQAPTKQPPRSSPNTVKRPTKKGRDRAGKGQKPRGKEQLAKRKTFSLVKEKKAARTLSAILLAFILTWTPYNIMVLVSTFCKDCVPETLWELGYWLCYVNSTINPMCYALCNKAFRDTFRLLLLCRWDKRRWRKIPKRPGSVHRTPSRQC
Put plainly: Positive allosteric modulation of human muscarinic M1 receptor stably expressed in CHO cells assessed as increase in Ach-induced intracellular calcium level preincubated for 10 mins followed by addition of Ach at EC20 concentration by Fluo-8AM dye based FLIPR TETRA method. In kind it is functional, cell-based. Background: Calcium assays in cells follow changes in intracellular calcium, usually with a dye or a luminescent sensor.

A further series deals with MDR1 (P-gp). Put plainly: Efflux ratio of permeability across basolateral to apical side over apical to basolateral side in dog MDCK-MDR1 cells. In kind it is ADME, cell-based, Canis lupus familiaris.
A short description of series [3]: Intrinsic clearance in human liver microsome. The class given is ADME. The settings on record: liver microsomes, read-out: CLH. On the technique in general: Liver microsomes are a subcellular fraction often used to study metabolism.
The nature of series [4]: Ratio of fAUC in C57BL/6 mouse brain to plasma. In kind it is ADME, cell-free. The note with it: brain and plasma, read-out: Ratio AUC.
A short description of series [5]: Ratio of AUC in C57BL/6 mouse brain to plasma at 1 mg/kg, sc. In kind it is ADME, organism-based. The note with it: brain and plasma, read-out: Ratio AUC.
Series [6] can be described thus: Fraction unbound in C57BL/6 mouse plasma. In kind it is ADME, cell-free.
The nature of series [7]: Fraction unbound in rat brain. In kind it is ADME, cell-free.
Series [8] is described as follows: Ratio of AUC in mouse brain to plasma. The class given is ADME, cell-free. The note with it: brain and plasma, read-out: Ratio AUC.

A value given as a limit tells only on which side of the number the result lay.

What is called EC50 is the concentration needed to bring the measured effect to its halfway point. As a reminder, the efflux ratio is the permeability from basolateral to apical divided by that in the opposite direction, in the common usage. With `O=C(N[C@H]1CCOC[C@@H]1O)c1cc(Cc2ccc(-n3cccn3)cc2)ccn1`, the Papp in series [1] came to 24 ×10⁻⁶ cm/s. Besides, the EC50 in series [2] was over 9000 nM. The efflux ratio in the series on MDR1 (P-gp) is 1.8. Besides, in series [3], the CLint scaled was under 8 mL/min/kg.

Take `Cc1cnc(C(=O)N[C@H]2CCOC[C@@H]2O)cc1Cc1ccc(-n2cccn2)cc1`: the Kp uu in series [4] stood at 0.23. Moreover, in [5], the Kp came out at 0.2. The Fu came out at 7.4% in [6] and 9% in [7]. In addition, the Papp in series [1] is 21 ×10⁻⁶ cm/s. The efflux ratio in the series on MDR1 (P-gp) worked out at 1.4. The CLint scaled in [3] is under 8 mL/min/kg.

Turning to `Cc1c(Cc2ccc(-c3ccn(C)n3)cc2)cc(C(=O)N[C@H]2CCCC[C@@H]2O)c(=O)n1C`, the Papp in series [1] is 13 ×10⁻⁶ cm/s. The EC50 in series [2] worked out at 102 nM. The efflux ratio in the series on MDR1 (P-gp) was determined as 3.1. In addition, the CLint scaled in series [3] stood at 13 mL/min/kg.

Take `Cc1c(Cc2ccc(-n3cccn3)cc2)cc(C(=O)N[C@H]2CCOC[C@@H]2O)c(=O)n1C`: in [1], the Papp is 20 ×10⁻⁶ cm/s. Besides, in series [2], the EC50 was 20 nM. In the series on MDR1 (P-gp), the efflux ratio is over 5.3. For the same compound, the CLint scaled in [3] is under 8 mL/min/kg.

`Cc1ncc(C(=O)N[C@H]2CCOC[C@@H]2O)cc1Cc1ccc(-n2cccn2)cc1`: in [1], the Papp came out at 8 ×10⁻⁶ cm/s. The EC50 in series [2] is 392 nM. The efflux ratio in the series on MDR1 (P-gp) was found to be 6.3. Besides, in [3], the CLint scaled is under 8 mL/min/kg.

Regarding `Cc1cc(N)c(C(=O)N[C@H]2CCOC[C@@H]2O)cc1Cc1ccc(-n2cccn2)cc1` (racemic), the Papp in series [1] was 19 ×10⁻⁶ cm/s. In addition, the EC50 in series [2] was over 9000 nM. Besides, the efflux ratio in the series on MDR1 (P-gp) was determined as 1.9. The CLint scaled in series [3] was 23 mL/min/kg.

For `Cc1c(Cc2ccc(-n3cccn3)cc2)cc(C(=O)N[C@H]2CCCC[C@@H]2O)c(=O)n1C`, in series [8], the Kp amounted to 0.05. In addition, the Papp in series [1] is 23 ×10⁻⁶ cm/s. Further, in series [2], the EC50 stood at 29 nM. For the same compound, the efflux ratio in the series on MDR1 (P-gp) is 2.7. In addition, the CLint scaled in series [3] was 20 mL/min/kg.

For the compound `Cc1cnc(C(=O)N[C@H]2CCOC[C@@H]2O)cc1Cc1ccc(-c2cocn2)cc1`, in [1], the Papp is 32 ×10⁻⁶ cm/s. For the same compound, in the series with MDR1 (P-gp), the efflux ratio stood at 1.2. Further, the CLint scaled in series [3] is under 8 mL/min/kg.

For `Cc1c(Cc2ccc(-c3cscn3)cc2)cc(C(=O)N[C@H]2CCCC[C@@H]2O)c(=O)n1C`, in [1], the Papp stood at 17 ×10⁻⁶ cm/s. Moreover, the EC50 in series [2] was found to be 166 nM. Besides, in the series with MDR1 (P-gp), the efflux ratio was determined as 2.4. Besides, the CLint scaled in [3] amounted to 26 mL/min/kg.

Consider `Cc1cnc(C(=O)N[C@H]2CCCC[C@@H]2O)cc1Cc1ccc(-n2cccn2)cc1` (single isomer, unassigned), for which, in [1], the Papp was found to be 19 ×10⁻⁶ cm/s. Further, in the series on MDR1 (P-gp), the efflux ratio was found to be 1.5. For the same compound, in series [3], the CLint scaled was 20 mL/min/kg.

Turning to `CO[C@@H]1CCN(c2ccc(Cc3cc(C(=O)N[C@H]4CCCC[C@@H]4O)c(=O)n(C)c3C)cc2)C1`, in series [1], the Papp was found to be 23 ×10⁻⁶ cm/s. Besides, the EC50 in series [2] was found to be 1690 nM. The efflux ratio in the series with MDR1 (P-gp) came to 2.2. Moreover, in series [3], the CLint scaled was found to be 22 mL/min/kg.

As for `Cc1c(Cc2ccc(-c3cocn3)cc2)cc(C(=O)N[C@H]2CCCC[C@@H]2O)c(=O)n1C`, in series [8], the Kp was determined as 0.03. In addition, the Papp in series [1] was determined as 26 ×10⁻⁶ cm/s. The EC50 in [2] stood at 38 nM. Further, the efflux ratio in the series on MDR1 (P-gp) was found to be 2.4. The CLint scaled in series [3] came out at 17 mL/min/kg.

As to `Cc1cc(F)c(C(=O)N[C@H]2CCOC[C@@H]2O)cc1Cc1ccc(-n2cccn2)cc1`, the Papp in series [1] worked out at 20 ×10⁻⁶ cm/s. Also, the EC50 in series [2] was determined as 115 nM. In addition, in the series on MDR1 (P-gp), the efflux ratio came to 1.5. Further, the CLint scaled in series [3] is under 10 mL/min/kg.

With `Cc1ccc(C(=O)N[C@H]2CCOC[C@@H]2O)cc1Cc1ccc(-n2cccn2)cc1`, the Papp in series [1] was 16 ×10⁻⁶ cm/s. Further, the EC50 in series [2] was found to be 208 nM. For the same compound, in the series on MDR1 (P-gp), the efflux ratio was 2.2. In addition, the CLint scaled in series [3] is under 8 mL/min/kg.
